According to patent US5137811A, “Method for diagnosing periodontal diseases with a substrate specific for aminopeptidase activity of periodontopathic bacteria” (Sunstar Kabushiki Kaisha, priority 1986, dated 1992):
*1 amine or outer side, *2 acyl side, *3 side chain or, on linkers, in order; H or OH if unused. Where a SMILES comes first, the peptide text is derived from it. The star is where a group is joined. Suc = O=C(CCC(=O)[*:2])[*:1]; βNA = c1ccc2cc(N*)ccc2c1; Cbz = O=C(OCc1ccccc1)*; Bz = O=C(c1ccccc1)*

Legend:
Experiment in all cases: Hydrolytic activity of cell suspension on aminopeptidase substrates (Experiment 2)
Assay type in all cases: cell-based
Actinomyces israelli = settings: two strains, Table 2
Method: (§1) The strains of Treponema were anaerobically cultivated using TYGVS media at 37° C. for 7 days, while other bacterial strains were cultivated using brain heart infusion broth at 37° C. for 48 to 72 hours. Each culture was diluted to obtain a bacterial cell suspension, the absorption at 660 nm of which was 1.0.
(§2) Substrate compounds for aminopeptidase enzyme having various color developing groups derived from β-naphthylamine were dissolved in 0.1M Tris-HCl buffer (pH 7.0) at the concentration of 0.2 mM to obtain substrate solutions.
(§3) To the substrate solution (1.5 ml) was added the above cell suspension (0.3 ml) and reacted at 37° C. for 60 minutes. After completion of the reaction, a coloring reagent [prepared by dissolving diazonium salt of Garnet GBC in 1M acetate buffer (containing 10% Tween 20, pH: 4.2) at the concentration of 0.5 mg/ml] was added and, after 15 minutes, the absorption at 525 nm was determined with a spectrophotometer.
(§4) On the basis of the average amount of released β-naphthylamine in each strain, the hydrolytic activity was expressed as follows: […]
(§5) According to the same manner as described in Experiment 1, periodontopathic bacteria specific aminopeptidase activity was tested by using four strains of Treponema denticola, five strains of B. gingivalis, three strains of B. intermedius, two strains of B. melaninogenicus, two strains of Actinomyces israelli, four strains of Actinobacillus actinomycetemcomitans and three strains of Fusobacterium nucleatum. Abbreviations used in Table 2 mean the following substrate compounds.

B. corporis = settings: Table 2
Method: as §1, §2, §3, §4, §5

[1] = system: Actinobacillus actinomycetemcomitans; settings: four strains, Table 2
Method: as §1, §2, §3, §4, §5

Fusobacterium nucleatum = settings: three strains, Table 2
Method: as §1, §2, §3, §4, §5

B. denticola = settings: Table 2
Method: as §1, §2, §3, §4, §5

B. intermedius = settings: three strains, Table 2
Method: as §1, §2, §3, §4, §5

B. melaninogenicus = settings: two strains, Table 2
Method: as §1, §2, §3, §4, §5

Treponema denticola = settings: four strains, Table 2
Method: as §1, §2, §3, §4, §5

B. gingivalis = settings: five strains, Table 2
Method: as §1, §2, §3, §4, §5

O=C(CNC(=O)c1ccccc1)N[C@@H](Cc1ccccc1)C(=O)N1CCC[C@H]1C(=O)Nc1ccc2ccccc2c1 [BzGFP, N-benzoyl-glycyl-phenylalanyl-proline-β-naphthylamide] (Bz-Gly-Phe-Pro-βNA)
hydrolytic activity (average amount of released β-naphthylamine) (Actinomyces israelli): - (release amount<5 nmol/ml) | hydrolytic activity (average amount of released β-naphthylamine) (B. corporis): ++ (20 ≤release amount<40 nmol/ml) | hydrolytic activity (average amount of released β-naphthylamine) [1]: - (release amount<5 nmol/ml) | hydrolytic activity (average amount of released β-naphthylamine) (Fusobacterium nucleatum): - (release amount<5 nmol/ml) | hydrolytic activity (average amount of released β-naphthylamine) (B. denticola): ++ (20 ≤release amount<40 nmol/ml) | hydrolytic activity (average amount of released β-naphthylamine) (B. intermedius): +++ (release amount≥40 nmol/ml) | hydrolytic activity (average amount of released β-naphthylamine) (B. melaninogenicus): ++ (20 ≤release amount<40 nmol/ml) | hydrolytic activity (average amount of released β-naphthylamine) (Treponema denticola): +++ (release amount≥40 nmol/ml) | hydrolytic activity (average amount of released β-naphthylamine) (B. gingivalis): ++ (20 ≤release amount<40 nmol/ml)

N[C@@H](Cc1ccccc1)C(=O)N1CCC[C@H]1C(=O)Nc1ccc2ccccc2c1 [FP, phenylalanyl-proline-β-naphthylamide] (H-Phe-Pro-βNA)
hydrolytic activity (average amount of released β-naphthylamine) (Actinomyces israelli): - (release amount<5 nmol/ml) | hydrolytic activity (average amount of released β-naphthylamine) (B. corporis): + (10 ≤release amount<20 nmol/ml) | hydrolytic activity (average amount of released β-naphthylamine) [1]: - (release amount<5 nmol/ml) | hydrolytic activity (average amount of released β-naphthylamine) (Fusobacterium nucleatum): - (release amount<5 nmol/ml) | hydrolytic activity (average amount of released β-naphthylamine) (B. denticola): + (10 ≤release amount<20 nmol/ml) | hydrolytic activity (average amount of released β-naphthylamine) (B. intermedius): + (10 ≤release amount<20 nmol/ml) | hydrolytic activity (average amount of released β-naphthylamine) (B. melaninogenicus): + (10 ≤release amount<20 nmol/ml) | hydrolytic activity (average amount of released β-naphthylamine) (Treponema denticola): ++ (20 ≤release amount<40 nmol/ml) | hydrolytic activity (average amount of released β-naphthylamine) (B. gingivalis): ++ (20 ≤release amount<40 nmol/ml)

CC(C)C[C@H](N)C(=O)NCC(=O)Nc1ccc2ccccc2c1 [LG, leucyl-glycine-β-naphthylamide, reference compound] (H-Leu-Gly-βNA)
hydrolytic activity (average amount of released β-naphthylamine) (Actinomyces israelli): - (release amount<5 nmol/ml) | hydrolytic activity (average amount of released β-naphthylamine) (B. corporis): ++ (20 ≤release amount<40 nmol/ml) | hydrolytic activity (average amount of released β-naphthylamine) [1]: - (release amount<5 nmol/ml) | hydrolytic activity (average amount of released β-naphthylamine) (Fusobacterium nucleatum): - (release amount<5 nmol/ml) | hydrolytic activity (average amount of released β-naphthylamine) (B. denticola): ++ (20 ≤release amount<40 nmol/ml) | hydrolytic activity (average amount of released β-naphthylamine) (B. intermedius): - (release amount<5 nmol/ml) | hydrolytic activity (average amount of released β-naphthylamine) (B. melaninogenicus): +++ (release amount≥40 nmol/ml) | hydrolytic activity (average amount of released β-naphthylamine) (Treponema denticola): - (release amount<5 nmol/ml) | hydrolytic activity (average amount of released β-naphthylamine) (B. gingivalis): + (10 ≤release amount<20 nmol/ml)

O=C(Nc1ccc2ccccc2c1)[C@@H]1CCCN1 [P, proline-β-naphthylamide, reference compound]
hydrolytic activity (average amount of released β-naphthylamine) (Actinomyces israelli): - (release amount<5 nmol/ml) | hydrolytic activity (average amount of released β-naphthylamine) (B. corporis): - (release amount<5 nmol/ml) | hydrolytic activity (average amount of released β-naphthylamine) [1]: - (release amount<5 nmol/ml) | hydrolytic activity (average amount of released β-naphthylamine) (Fusobacterium nucleatum): - (release amount<5 nmol/ml) | hydrolytic activity (average amount of released β-naphthylamine) (B. denticola): - (release amount<5 nmol/ml) | hydrolytic activity (average amount of released β-naphthylamine) (B. intermedius): - (release amount<5 nmol/ml) | hydrolytic activity (average amount of released β-naphthylamine) (B. melaninogenicus): - (release amount<5 nmol/ml) | hydrolytic activity (average amount of released β-naphthylamine) (Treponema denticola): + (10 ≤release amount<20 nmol/ml) | hydrolytic activity (average amount of released β-naphthylamine) (B. gingivalis): - (release amount<5 nmol/ml)

N[C@@H](CO)C(=O)N[C@@H](Cc1ccc(O)cc1)C(=O)Nc1ccc2ccccc2c1 [SY, seryl-tyrosine-β-naphthylamide, reference compound] (H-Ser-Tyr-βNA)
hydrolytic activity (average amount of released β-naphthylamine) (Actinomyces israelli): - (release amount<5 nmol/ml) | hydrolytic activity (average amount of released β-naphthylamine) (B. corporis): ± (5 ≤release amount<10 nmol/ml) | hydrolytic activity (average amount of released β-naphthylamine) [1]: - (release amount<5 nmol/ml) | hydrolytic activity (average amount of released β-naphthylamine) (Fusobacterium nucleatum): - (release amount<5 nmol/ml) | hydrolytic activity (average amount of released β-naphthylamine) (B. denticola): ± (5 ≤release amount<10 nmol/ml) | hydrolytic activity (average amount of released β-naphthylamine) (B. intermedius): - (release amount<5 nmol/ml) | hydrolytic activity (average amount of released β-naphthylamine) (B. melaninogenicus): ± (5 ≤release amount<10 nmol/ml) | hydrolytic activity (average amount of released β-naphthylamine) (Treponema denticola): - (release amount<5 nmol/ml) | hydrolytic activity (average amount of released β-naphthylamine) (B. gingivalis): ++ (20 ≤release amount<40 nmol/ml)

CC(C)[C@H](N)C(=O)N[C@@H](C)C(=O)Nc1ccc2ccccc2c1 [VA, valyl-alanine-β-naphthylamide, reference compound] (H-Val-Ala-βNA)
hydrolytic activity (average amount of released β-naphthylamine) (Actinomyces israelli): - (release amount<5 nmol/ml) | hydrolytic activity (average amount of released β-naphthylamine) (B. corporis): ± (5 ≤release amount<10 nmol/ml) | hydrolytic activity (average amount of released β-naphthylamine) [1]: - (release amount<5 nmol/ml) | hydrolytic activity (average amount of released β-naphthylamine) (Fusobacterium nucleatum): - (release amount<5 nmol/ml) | hydrolytic activity (average amount of released β-naphthylamine) (B. denticola): ± (5 ≤release amount<10 nmol/ml) | hydrolytic activity (average amount of released β-naphthylamine) (B. intermedius): - (release amount<5 nmol/ml) | hydrolytic activity (average amount of released β-naphthylamine) (B. melaninogenicus): ± (5 ≤release amount<10 nmol/ml) | hydrolytic activity (average amount of released β-naphthylamine) (Treponema denticola): - (release amount<5 nmol/ml) | hydrolytic activity (average amount of released β-naphthylamine) (B. gingivalis): ++ (20 ≤release amount<40 nmol/ml)

CC(C)[C@H](NC(=O)OCc1ccccc1)C(=O)N[C@@H](CCCCN)C(=O)N1CCC[C@H]1C(=O)Nc1ccc2ccccc2c1 [CxVKP, N-carbobenzoxy-valyl-lysyl-proline-β-naphthylamide] (Cbz-Val-Lys-Pro-βNA)
hydrolytic activity (average amount of released β-naphthylamine) (Actinomyces israelli): - (release amount<5 nmol/ml) | hydrolytic activity (average amount of released β-naphthylamine) (B. corporis): ++ (20 ≤release amount<40 nmol/ml) | hydrolytic activity (average amount of released β-naphthylamine) [1]: - (release amount<5 nmol/ml) | hydrolytic activity (average amount of released β-naphthylamine) (Fusobacterium nucleatum): - (release amount<5 nmol/ml) | hydrolytic activity (average amount of released β-naphthylamine) (B. denticola): ++ (20 ≤release amount<40 nmol/ml) | hydrolytic activity (average amount of released β-naphthylamine) (B. intermedius): ++ (20 ≤release amount<40 nmol/ml) | hydrolytic activity (average amount of released β-naphthylamine) (B. melaninogenicus): ++ (20 ≤release amount<40 nmol/ml) | hydrolytic activity (average amount of released β-naphthylamine) (Treponema denticola): ++ (20 ≤release amount<40 nmol/ml) | hydrolytic activity (average amount of released β-naphthylamine) (B. gingivalis): ++ (20 ≤release amount<40 nmol/ml)

O=C(NCC(=O)N1CCC[C@H]1C(=O)Nc1ccc2ccccc2c1)c1ccccc1 [BzGP, N-benzoyl-glycyl-proline-β-naphthylamide] (Bz-Gly-Pro-βNA)
hydrolytic activity (average amount of released β-naphthylamine) (Actinomyces israelli): - (release amount<5 nmol/ml) | hydrolytic activity (average amount of released β-naphthylamine) (B. corporis): ++ (20 ≤release amount<40 nmol/ml) | hydrolytic activity (average amount of released β-naphthylamine) [1]: - (release amount<5 nmol/ml) | hydrolytic activity (average amount of released β-naphthylamine) (Fusobacterium nucleatum): - (release amount<5 nmol/ml) | hydrolytic activity (average amount of released β-naphthylamine) (B. denticola): ++ (20 ≤release amount<40 nmol/ml) | hydrolytic activity (average amount of released β-naphthylamine) (B. intermedius): +++ (release amount≥40 nmol/ml) | hydrolytic activity (average amount of released β-naphthylamine) (B. melaninogenicus): ++ (20 ≤release amount<40 nmol/ml) | hydrolytic activity (average amount of released β-naphthylamine) (Treponema denticola): ++ (20 ≤release amount<40 nmol/ml) | hydrolytic activity (average amount of released β-naphthylamine) (B. gingivalis): ++ (20 ≤release amount<40 nmol/ml)

CC(C)C[C@H](NC(=O)[C@@H]1CCCN1C(=O)CNC(=O)CCC(=O)O)C(=O)NCC(=O)N1CCC[C@H]1C(=O)Nc1ccc2ccccc2c1 [ScGPLGP, N-succinyl-glycyl-prolyl-leucyl-glycyl-proline-β-naphthylamide] (Suc-GPLGP-βNA)
hydrolytic activity (average amount of released β-naphthylamine) (Actinomyces israelli): - (release amount<5 nmol/ml) | hydrolytic activity (average amount of released β-naphthylamine) (B. corporis): ± (5 ≤release amount<10 nmol/ml) | hydrolytic activity (average amount of released β-naphthylamine) [1]: - (release amount<5 nmol/ml) | hydrolytic activity (average amount of released β-naphthylamine) (Fusobacterium nucleatum): - (release amount<5 nmol/ml) | hydrolytic activity (average amount of released β-naphthylamine) (B. denticola): ± (5 ≤release amount<10 nmol/ml) | hydrolytic activity (average amount of released β-naphthylamine) (B. intermedius): + (10 ≤release amount<20 nmol/ml) | hydrolytic activity (average amount of released β-naphthylamine) (B. melaninogenicus): ± (5 ≤release amount<10 nmol/ml) | hydrolytic activity (average amount of released β-naphthylamine) (Treponema denticola): + (10 ≤release amount<20 nmol/ml) | hydrolytic activity (average amount of released β-naphthylamine) (B. gingivalis): ± (5 ≤release amount<10 nmol/ml)
